Patent publication US20230279000A1, “PYRIDOPYRIMIDINE DERIVATIVES USEFUL IN MODULATION OF AHR SIGNALLING” (JAGUAHR THERAPEUTICS PTE LTD, priority 2020, published 2023)
Structures can show the parent of a compound that is named as a salt.

Tests used:
AhR [1] = molecular target: T1, AhR (Homo sapiens, UniProt P35869); assay: AhR antagonism in U937 cells (Promega P450-Glo assay); type: cell-based; details: inhibition of 4.5 nM VAF347 agonist response, CYP1A1 activity (Luciferin-CEE) after 24 hrs, arithmetic mean of two or more tests, read-out: U937 Assay (pIC50) (converted)
T1 construct: PBMCs were isolated from human peripheral blood using Lymphoprep; endogenous in cells
T1 sequence (P35869 11-848): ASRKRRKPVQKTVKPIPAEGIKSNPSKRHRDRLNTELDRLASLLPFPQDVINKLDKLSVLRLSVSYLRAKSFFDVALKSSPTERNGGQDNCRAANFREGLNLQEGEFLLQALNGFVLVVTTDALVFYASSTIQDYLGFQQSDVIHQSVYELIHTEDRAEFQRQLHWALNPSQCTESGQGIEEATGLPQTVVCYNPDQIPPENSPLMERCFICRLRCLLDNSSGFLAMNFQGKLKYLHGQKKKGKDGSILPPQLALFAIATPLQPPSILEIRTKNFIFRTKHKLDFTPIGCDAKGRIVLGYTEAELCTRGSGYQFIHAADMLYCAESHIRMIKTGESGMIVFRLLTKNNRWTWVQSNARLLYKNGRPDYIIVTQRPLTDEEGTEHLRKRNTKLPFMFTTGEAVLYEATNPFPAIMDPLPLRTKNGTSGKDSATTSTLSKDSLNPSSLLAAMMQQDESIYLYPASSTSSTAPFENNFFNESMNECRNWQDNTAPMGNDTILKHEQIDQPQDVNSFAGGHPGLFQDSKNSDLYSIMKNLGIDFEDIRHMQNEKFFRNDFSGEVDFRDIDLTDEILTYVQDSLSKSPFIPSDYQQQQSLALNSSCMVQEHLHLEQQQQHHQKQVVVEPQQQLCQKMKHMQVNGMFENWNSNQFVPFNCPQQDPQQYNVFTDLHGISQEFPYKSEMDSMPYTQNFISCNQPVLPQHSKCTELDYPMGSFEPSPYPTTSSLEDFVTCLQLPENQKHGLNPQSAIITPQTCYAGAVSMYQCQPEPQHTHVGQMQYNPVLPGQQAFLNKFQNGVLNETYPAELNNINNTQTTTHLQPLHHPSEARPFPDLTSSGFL
Method: (§1) Examples were tested in selected biological assays two or more times. Data are reported as the arithmetic mean of the pIC50 (-log10IC50) values, where IC50 is defined as the concentration of compound producing a 50% inhibition of the agonist response. In the case of the U937 assay, VAF347 was used as the agonist; in the peripheral blood mononuclear cell (PBMC) assay the effects of the test compounds are assessed against endogenously produced AhR agonists generated following PBMC activation.
In Vitro Assay 1: AhR Antagonism in U937 Cells (Promega P450-Glo™ Assay)
AhR antagonism was assessed in U937 cells (myeloid lineage cell line derived from a human histiocytic lymphoma). Ligand binds the AhR in the cytoplasm, and the AhR-ligand complex translocates to the nucleus and forms a heterodimer with AhR nuclear translocator (Arnt). This complex binds the xenobiotic response element (XRE) in the 5′ upstream region of the CYP1A1 promoter, enhancing CYP1A1 expression. CYP1A1 activity is subsequently determined by assessing the conversion of Luciferin-CEE to luciferin, which in turn reacts with luciferase to produce light. The amount of light produced is directly proportional to cytochrome P450 activity.
U937 cells in Ultraculture serum free media (Lonza) were plated at 100,000 cells per well in a round bottom 96 well tissue culture plate. Seven concentrations of test compound (final [DMSO] 1%) were added and incubated for 10 minutes before the addition of 4.5 nM VAF347. The plates were then placed in an incubator at 37° C., ≥ 85% humidity, 5% CO2 for 24 hrs. After aspiration of the supernatant the CYP1A1 substrate Luciferin-CEE ([Final] 83 µM) was added and incubated for 3 hrs before the reaction was stopped by adding luciferin detection reagent and luminescence was read after 20 minutes.

AhR [2] = molecular target: T1, AhR; assay: AhR antagonism in human PBMCs - inhibition of interleukin-22 (IL-22) release; type: cell-based; details: human PBMCs activated with CD3/CD28 agonist; IL-22 release after 72 hrs, against endogenously produced AhR agonists; arithmetic mean of two or more tests; read-out: PBMC Assay (pIC50) (converted)
Method: as §1
In Vitro Assay 2: AhR Antagonism in Human Peripheral Blood Mononuclear Cells (PBMCS) -Inhibition of Interleukin-22 (IL-22) Release
PBMCs were isolated from human peripheral blood using Lymphoprep™ and diluted to 1 × 10^6 cells per ml in RPMI media containing 10% foetal bovine serum, 1% penicillin-streptomycin and 1% non-essential amino acids. PBMCs were subsequently activated with 1 µl per 100,000 cells of a CD3/CD28 agonist mixture (human T Cell TransAct™(Miltenyi Biotec)) and then plated at 100,000 cells per well in a round bottom 96 well tissue culture plate. One hour after stimulation seven concentrations of each test compound or vehicle (final [DMSO] 0.2%) were added. The plates were then placed in an incubator at 37° C., ≥ 85% humidity, 5% CO2 for 72 hrs before the media was removed and stored at -20° C. until cytokine analysis. IL-22 was measured using human IL-22 DuoSet ELISA (R&D systems) according to the manufacturer’s instructions.

| Structure (SMILES) | IC50 (AhR [1]) [µM] | IC50 (AhR [2]) [µM] |
| --- | --- | --- |
| CCN1CCc2nc(-c3cncc(F)c3)nc(NCCc3c[nH]c4cc(OC)ccc34)c2CC1 [Example 15, 7-ethyl-2-(5-fluoropyridin-3-yl)-N-[2-(6-methoxy-1H-indol-3-yl)ethyl]-5H,6H,7H,8H,9H-pyrimido[4,5-d]azepin-4-amine] | 0.158 | 0.631 |
| COc1cncc(-c2nc3c(c(NCCc4c[nH]c5ccccc45)n2)CCNC3)c1 [Example 9, N-[2-(1H-indol-3-yl)ethyl]-2-(5-methoxypyridin-3-yl)-5H,6H,7H,8H-pyrido[3,4-d]pyrimidin-4-amine] | 0.02 | 0.794 |
| FC(F)(F)c1cncc(-c2nc3c(c(NCCc4c[nH]c5ccccc45)n2)CCNC3)c1 [Example 10, N-[2-(1H-indol-3-yl)ethyl]-2-[5-(trifluoromethyl)pyridin-3-yl]-5H,6H,7H,8H-pyrido[3,4-d]pyrimidin-4-amine] | 0.0251 | 0.794 |
| COc1ccc2[nH]c(C)c(CCNc3nc(-c4cncc(F)c4)nc4c3CCNC4)c2c1 [Example 14, 2-(5-Fluoropyridin-3-yl)-4-{[2-(5-Methoxy-2-Methyl-1H-Indol-3-yl)Ethyl]Amino}-5H,6H,7H,8H-Pyrido[3,4-d]Pyrimidin-7-ium Chloride] | 0.1 | 0.631 |
| COc1ccc2c(CCOc3nc(-c4cncc(F)c4)nc4c3CCNC4)c[nH]c2c1 [Example 17, 3-(2-{[2-(5-Fluoropyridin-3-yl)-5H,6H,7H,8H-Pyrido[3,4-d]Pyrimidin-4-yl]Oxy}Ethyl)-6-Methoxy-1H-Indole Hydrochloride] | 0.0501 | 0.0251 |
| COc1ccc2c(CCNc3nc(-c4cncc(F)c4)nc4c3CCNCC4)c[nH]c2c1 [Example 16, 2-(5-fluoropyridin-3-yl)-N-[2-(6-methoxy-1H-indol-3-yl)ethyl]-5H,6H,7H,8H,9H-pyrimido[4,5-d]azepin-4-amine] | 0.316 | 0.2 |
| Fc1cncc(-c2nc3c(c(NCCc4c(C(F)(F)F)[nH]c5ccccc45)n2)CCNC3)c1 [Example 18, 2-(5-Fluoropyridin-3-yl)-4-({2-[2-(Trifluoromethyl)-1H-Indol-3-yl]Ethyl}Amino)-5H,6H,7H,8H-Pyrido[3,4-d]Pyrimidin-7-ium Chloride] | 0.02 | 0.316 |
| COc1ccc2c(CCNc3nc(-c4cncc(F)c4)nc4c3CCNC4)c[nH]c2c1 [Example 1, 2-(5-fluoropyridin-3-yl)-N-[2-(6-methoxy-1H-indol-3-yl)ethyl]-5H,6H,7H,8H-pyrido[3,4-d]pyrimidin-4-amine] | 0.126 | 0.126 |
| COc1ccc2c(CCNc3nc(-c4cncc(F)c4)nc4c3CNC4)c[nH]c2c1 [Example 5, 2-(5-fluoropyridin-3-yl)-N-[2-(6-methoxy-1H-indol-3-yl)ethyl]-5H,6H,7H-pyrrolo[3,4-d]pyrimidin-4-amine] | 0.2 | 0.398 |
